The text below walks through data of patent US20110059850A1, “PHYTOTOXIC HALOGENATED DERIVATIVES OF BENZOXAZINONES” (UNIVERSIDAD DE CÁDIZ, priority 2006, published 2011).

Assay [1] deals with Lolium rigidum L. (ryegrass), common biotype and biotype multiresistant to herbicides SLR31. Briefly: phytotoxicity bioassay in Petri dishes, L. rigidum biotypes. It counts as in vivo. To be noted: common biotype versus multiresistant biotype SLR31. The procedure: (§1) The phytotoxicity bioassays for the compounds object of the invention are performed by means of the protocol of phytotoxicity bioassays in Petri dishes developed by the Grupo de Alelopatía de Cádiz (Cádiz Allelopathy Group) (see, for example: Macías, F. A.; Castellano, D.; Molinillo, J. M. G.; J. Agric. Food Chem. 2000, 48, 6, 2512-2521).
(§2) This assay attempts to imitate the natural conditions of the action of the products to be assayed on seeds of selected plant species, therefore the products are supplied in the form of aqueous solution in a Petri dish in which a certain number of seeds of each receiving species is introduced. The concentration range used allows observing the relationship between the phytotoxic activity of the product and its concentration. The dilutions assayed were 10^−3 M, 5·10^−4 M, 10^−4 M, 5·10^−5 M, 10^−5 M, 5·10^−6 M, 10^−6 M, 5·10^−7, 10^−7 and 5·10^−8. These solutions are buffered at pH=6 using to that end a 10 mM solution of 2-[N-morpholino]-ethanesulfonic acid (MES) the pH of which is adjusted to the desired value by means of adding a 1M solution of NaOH. The blank of this experiment is distilled and deionized water also buffered with MES but in which there is no product dissolved. […]

Assay [2] relates to Lepidium sativum L. (watercress). Briefly: phytotoxicity bioassay in Petri dishes, radicle length. It is filed as in vivo. The conditions noted are these: sigmoid type dose-response model, pH 6, 25° C., dark. The procedure:
as §1, §2

Turning to `O=C1COc2ccc(F)cc2N1O` [Compound II, 6-fluoro-4-hydroxy-(2H)-1,4-benzoxazin-3(4H)-one], the “most affected L. rigidum biotype” value in assay [1] is reported as “the multiresistant biotype was the most affected”.

In the case of `O=C1COc2ccc(Cl)cc2N1O` [VII, 6-chloro-4-hydroxy-(2H)-1,4-benzoxazin-3(4H)-one], in assay [2], the IC50 (commonly the concentration needed to halve the response being measured) is around 58 nM. The “most affected L. rigidum biotype” value in assay [1] was “the opposite trend”.
